Measurements published in patent US10675360B2 (MADRIGAL PHARMACEUTICALS, INC., priority 2014, dated 2020).

Assay: Stability in mouse plasma
Type: in vitro ADME
Details: 1 h
Description: SDC-TRAP-0022 and SDC-TRAP-0028 were incubated in human and mouse plasma for 2 h at 37° C. and assayed for integrity at 0.25, 0.5, 1 and 2 h. The values reported below are the remaining of the parent compound at the end of the 2 h incubation period.
This solution was used to precipitate all plasma samples in the study. 200 μL was pipetted into a 96 deepwell plate over dry ice. 10 μL of 1 mM stock in DMSO was added to a 1.5 mL microfuge tube, then 990 μL of plasma. Samples were mixed by vortex, then 50 μL of each sample was added in triplicate to a 96-well plate containing internal standard solution. This was designated the 0 hour time point sample. 250 μL of the remaining plasma sample was added to each of four 96 deepwell plates—one per time point. Samples were incubated at 37° C. with gentle shaking for 0.25, 0.5, and 1 hour. After each time point, one plate of each sample was removed from the shaker and placed on wet ice for approximately 2 minutes. 50 μL plasma aliquots (in triplicate) were added to the deepwell plate containing internal standard solution. After the last time point was extracted, the 96 deepwell plate was vortexed, then centrifuged at 2-8° C. 150 μL of supernatant was collected and 25 μL of water was added. Samples were mixed and analyzed by LC-MS/MS.
The stability of seven SDC-TRAP types in mouse plasma was measured as follows. 990 μL mouse plasma aliquots from a common stock were spiked with 10 μL of 1 mM stock of one of seven SDC-TRAP samples identified in the table below. Each sample was mixed and divided into 250 μL aliquots, each representing time points 0, 15 minutes, 30 minutes or 1 hour. At the prescribed time point, 3×50 μL samples were each mixed with 200 μL of methanol containing internal standard and held on dry ice until all time point samples were extracted. The samples collectively were vortex mixed for 1.5 minutes at 1500 rpm, then centrifuged at 4400 rpm for 10 minutes at 8° C.

Structure (SMILES) | % Remaining (mouse, plasma, 10 μM) | % Remaining (mouse plasma, 37° C.)
CCNC(=O)c1nnc(-c2cc(C(C)C)c(O)cc2O)n1-c1ccc(Oc2ccc(OC(=O)N(C)CCOC(=O)Nc3cccc4c3CN(C3CCC(=O)NC3=O)C4=O)cc2)cc1 (centres unmarked) | 51.2% | 
CCc1c2c(nc3ccc(OC(=O)N(C)CCn4ccc5cc(-n6c(O)nnc6-c6cc(C(C)C)c(O)cc6O)ccc54)cc13)-c1cc3c(c(=O)n1C2)COC(=O)C3(O)CC (centres unmarked) [SDC-TRAP-0022, 4,11-diethyl-4-hydroxy-3,14-dioxo-3,4,12,14-tetrahydro-1H-pyrano[3′,4′:6,7]indolizino[1,2-b]quinolin-9-yl (2-(5-(3-(2,4-dihydroxy-5-isopropylphenyl)-5-hydroxy-4H-1,2,4-triazol-4-yl)-1H-indol-1-yl)ethyl)(methyl)carbamate] |  | 21%
CCc1c2c(nc3ccc(O)cc13)-c1cc3c(c(=O)n1C2)COC(=O)C3(CC)OC(=O)N(C)CCOCCn1ccc2cc(-n3c(O)nnc3-c3cc(C(C)C)c(O)cc3O)ccc21 (centres unmarked) [SDC-TRAP-0037, 4,11-diethyl-9-hydroxy-3,14-dioxo-3,4,12,14-tetrahydro-1H-pyrano[3′,4′:6,7]indolizino[1,2-b]quinolin-4-yl (2-(2-(5-(3-(2,4-dihydroxy-5-isopropylphenyl)-5-hydroxy-4H-1,2,4-triazol-4-yl)-1H-indol-1-yl)ethoxy)ethyl)(methyl)carbamate] |  | 95%
CCc1c2c(nc3ccc(O)cc13)-c1cc3c(c(=O)n1C2)COC(=O)C3(CC)OC(=O)CCC(=O)N1CCC(Cc2ccc(-n3c(O)nnc3-c3cc(C(C)C)c(O)cc3O)cc2)CC1 (centres unmarked) [SDC-TRAP-0042, 4,11-diethyl-9-hydroxy-3,14-dioxo-3,4,12,14-tetrahydro-1H-pyrano[3′,4′:6,7]indolizino[1,2-b]quinolin-4-yl 4-(4-(4-(3-(2,4-dihydroxy-5-isopropylphenyl)-5-hydroxy-4H-1,2,4-triazol-4-yl)benzyl)piperidin-1-yl)-4-oxobutanoate] |  | 74%
CCc1c2c(nc3ccc(OC(=O)N(C)CCCCN4CCN(Cc5ccc(-n6c(O)nnc6-c6cc(C(C)C)c(O)cc6O)cc5)CC4)cc13)-c1cc3c(c(=O)n1C2)COC(=O)C3(O)CC (centres unmarked) [SDC-TRAP-0044, 4,11-diethyl-4-hydroxy-3,14-dioxo-3,4,12,14-tetrahydro-1H-pyrano[3′,4′:6,7]indolizino[1,2-b]quinolin-9-yl (4-(4-(4-(3-(2,4-dihydroxy-5-isopropylphenyl)-5-hydroxy-4H-1,2,4-triazol-4-yl)benzyl)piperazin-1-yl)butyl)(methyl)carbamate] |  | 61%
CCc1c2c(nc3ccc(O)cc13)-c1cc3c(c(=O)n1C2)COC(=O)C3(CC)OC(=O)N1CCN(Cc2ccc(-n3c(O)nnc3-c3cc(C(C)C)c(O)cc3O)cc2)CC1 (centres unmarked) [SDC-TRAP-0047, 4,11-diethyl-9-hydroxy-3,14-dioxo-3,4,12,14-tetrahydro-1H-pyrano[3′,4′:6,7]indolizino[1,2-b]quinolin-4-yl 4-(4-(3-(2,4-dihydroxy-5-isopropylphenyl)-5-hydroxy-4H-1,2,4-triazol-4-yl)benzyl)piperazine-1-carboxylate] |  | 89%
CCc1c2c(nc3ccc(O)cc13)-c1cc3c(c(=O)n1C2)COC(=O)C3(CC)OC(=O)N(C)CCCCN1CCN(Cc2ccc(-n3c(O)nnc3-c3cc(C(C)C)c(O)cc3O)cc2)CC1 (centres unmarked) [SDC-TRAP-0055, 4,11-diethyl-9-hydroxy-3,14-dioxo-3,4,12,14-tetrahydro-1H-pyrano[3′,4′:6,7]indolizino[1,2-b]quinolin-4-yl (4-(4-(4-(3-(2,4-dihydroxy-5-isopropylphenyl)-5-hydroxy-4H-1,2,4-triazol-4-yl)benzyl)piperazin-1-yl)butyl)(methyl)carbamate] | 103% | 
CCc1c2c(nc3ccc(O)cc13)-c1cc3c(c(=O)n1C2)COC(=O)C3(CC)OC(=O)CN1CCN(c2ccc(-n3c(O)nnc3-c3cc(C(C)C)c(O)cc3O)cc2)CC1 (centres unmarked) [SDC-TRAP-0056, 4,11-diethyl-9-hydroxy-3,14-dioxo-3,4,12,14-tetrahydro-1H-pyrano[3′,4′: 6,7]indolizino[1,2-b]quinolin-4-yl 2-(4-(4-(3-(2,4-dihydroxy-5-isopropylphenyl)-5-hydroxy-4H-1,2,4-triazol-4-yl)phenyl)piperazin-1-yl)acetate] |  | 78%
CCc1c2c(nc3ccc(O)cc13)-c1cc3c(c(=O)n1C2)COC(=O)[C@@]3(CC)OC(=O)N1CCC(CCn2ccc3cc(-n4c(O)nnc4-c4cc(C(C)C)c(O)cc4O)ccc32)CC1 [SDC-TRAP-0064, (S)-4,11-diethyl-9-hydroxy-3,14-dioxo-3,4,12,14-tetrahydro-1H-pyrano[3′,4′:6,7]indolizino[1,2-b]quinolin-4-yl 4-(2-(5-(3-(2,4-dihydroxy-5-isopropylphenyl)-5-hydroxy-4H-1,2,4-triazol-4-yl)-1H-indol-1-yl)ethyl)piperidine-1-carboxylate] |  | 91.5%
CCc1c2c(nc3ccc(O)cc13)-c1cc3c(c(=O)n1C2)COC(=O)C3(CC)OC(=O)CN1CCC(Cc2ccc(-n3c(O)nnc3-c3cc(C(C)C)c(O)cc3O)cc2)CC1 (centres unmarked) [SDC-TRAP-0071, 4,11-diethyl-9-hydroxy-3,14-dioxo-3,4,12,14-tetrahydro-1H-pyrano[3′,4′:6,7]indolizino[1,2-b]quinolin-4-yl 2-(4-(4-(3-(2,4-dihydroxy-5-isopropylphenyl)-5-hydroxy-4H-1,2,4-triazol-4-yl)benzyl)piperidin-1-yl)acetate] |  | 102%
CCc1c2c(nc3ccc(O)cc13)-c1cc3c(c(=O)n1C2)COC(=O)[C@@]3(CC)OC(=O)N1CCC(CCc2ccc(-n3c(O)nnc3-c3cc(C(C)C)c(O)cc3O)cc2)CC1 [SDC-TRAP-0104, (S)-4,11-diethyl-9-hydroxy-3,14-dioxo-3,4,12,14-tetrahydro-1H-pyrano[3′,4′:6,7]indolizino[1,2-b]quinolin-4-yl 4-(4-(3-(2,4-dihydroxy-5-isopropylphenyl)-5-hydroxy-4H-1,2,4-triazol-4-yl)phenethyl)piperidine-1-carboxylate] |  | 95.5%
COc1cc(O)c(-c2nnc(C(=O)NC(C)C)n2-c2ccc(CN3CCC(C(=O)Nc4cccc5c4CN(C4CCC(=O)NC4=O)C5=O)CC3)cc2)cc1C(C)C (centres unmarked) [SDC-TRAP-0115, N-(2-(2,6-dioxopiperidin-3-yl)-1-oxoisoindolin-4-yl)-1-(4-(3-(2-hydroxy-5-isopropyl-4-methoxyphenyl)-5-(isopropylcarbamoyl)-4H-1,2,4-triazol-4-yl)benzyl)piperidine-4-carboxamide] | 85.9% | 
CC(C)c1cc(-c2nnc(O)n2-c2ccc(CN3CCN(C(=O)COC(=O)Nc4cccc5c4CN(C4CCC(=O)NC4=O)C5=O)CC3)cc2)c(O)cc1O (centres unmarked) [SDC-TRAP-0121, 2-(4-(4-(3-(2,4-dihydroxy-5-isopropylphenyl)-5-hydroxy-4H-1,2,4-triazol-4-yl)benzyl)piperazin-1-yl)-2-oxoethyl(2-(2,6-dioxopiperidin-3-yl)-1-oxoisoindolin-4-yl)carbamate] | 89.1% | 
CCNC(=O)c1nnc(-c2cc(C(C)C)c(O)cc2O)n1-c1ccc(CN2CCC(C(=O)N3CCC(COC(=O)Nc4cccc5c4CN(C4CCC(=O)NC4=O)C5=O)CC3)CC2)cc1 (centres unmarked) [SDC-TRAP-0124, (1-(1-(4-(3-(2,4-Dihydroxy-5-isopropylphenyl)-5-(ethylcarbamoyl)-4H-1,2,4-triazol-4-yl)benzyl)piperidine-4-carbonyl)piperidin-4-yl)methyl (2-(2,6-dioxopiperidin-3-yl)-1-oxoisoindolin-4-yl)carbamate] | 112% | 
